From paper PMC11118514, “Eminent Antimicrobial Peptide Resistance in Zymomonas mobilis: A Novel Advantage of Intrinsically Uncoupled Energetics” (Antibiotics, 2024)
In brackets after ≈: the same amount, converted by molar mass. Where a SMILES comes first, the peptide text is derived from it. Where no end group is shown, it is not given here.

Legend:
[1] = tested on: Z. mobilis; assay type: cell-based, Zymomonas mobilis
Experimental: Z. mobilis strains, Zm6 (ATCC 29191), E. coli (ATCC 25404) and an S. aureus strain (DSM 20231) were subjected to screening for AMP resistance. Z. mobilis strains were routinely grown on the standard culture medium containing (per liter) 5 g of yeast extract, 1 g of KH2PO4, 1 g of (NH4) 2SO4, and 0.5 g of MgSO4·7H2O, supplemented with 40 mL of 50% glucose solution. E. coli was grown on LB medium, containing (per liter) 10 g of tryptone, 5 g of yeast extract, and 10 g of NaCl. S. aureus was grown on Mueller Hinton Broth, 21 g per 1 L, at 30 °C.
(§1) The quantification of antimicrobial resistance against various AMPs was conducted by monitoring the bacterial growth in the presence of peptides at serial dilutions. This assay was performed in 96-well plates using the Infinite® M200 PRO Multimode Microplate Reader from Tecan in Maennedorf, Switzerland, as described in our recent report. All bacterial strains were cultivated at 32 °C for 13–18 h at 200 rpm. Optical density measurements (λ = 550 nm) were automatically recorded at 10 min intervals. The antimicrobial resistance activity was quantified as the minimum inhibitory concentration (MIC), which represents the lowest peptide concentration capable of preventing the growth of bacterial cells.

[2] = tested on: E. coli; settings: cited from earlier work
Excerpt: Table 1 Minimal inhibitory concentrations (MICs) of AMPs against selected bacteria, μg/mL. | column: From / E. coli

[3] = tested on: E. Cancerogenus; settings: cited from earlier work
Excerpt: Table 1 Minimal inhibitory concentrations (MICs) of AMPs against selected bacteria, μg/mL. | column: From / E. Cancerogenus

[4] = tested on: P. aeroginosa; settings: cited from earlier work
Excerpt: Table 1 Minimal inhibitory concentrations (MICs) of AMPs against selected bacteria, μg/mL. | column: From / P. aeroginosa

[5] = tested on: K. pneumonia; settings: cited from earlier work
Excerpt: Table 1 Minimal inhibitory concentrations (MICs) of AMPs against selected bacteria, μg/mL. | column: From / K. pneumonia

[6] = tested on: E. faecium; settings: cited from earlier work
Excerpt: Table 1 Minimal inhibitory concentrations (MICs) of AMPs against selected bacteria, μg/mL. | column: From / E. faecium

[7] = tested on: S. aureus; settings: cited from earlier work
Excerpt: Table 1 Minimal inhibitory concentrations (MICs) of AMPs against selected bacteria, μg/mL. | column: From / S. aureus

[8] = tested on: P. acne; settings: cited from earlier work
Excerpt: Table 1 Minimal inhibitory concentrations (MICs) of AMPs against selected bacteria, μg/mL. | column: From / P. acne

[9] = tested on: E. coli; experiment: Normalized inhibitory concentration (peptide molecules per cell); assay type: cell-based, Escherichia coli; settings: added AMP normalized to inoculum size, calculated with E. coli cell size parameters
Excerpt: (§2) We noted, however, that there was a substantial difference between the specific cultivation conditions of Z. mobilis and the rest of the tested bacteria: Z. mobilis required a higher concentration of inoculum. A higher amount of biomass introduced at the start of cultivation might mitigate the antimicrobial effect of AMPs, since this decreases the number of peptide molecules available to penetrate the membrane of each individual cell. Indeed, it was shown that at least […] bound peptide molecules per bacterial cell are needed to kill it. […] For these experiments, we chose one Gram-positive and one Gram-negative model strain (S.aureus and E.coli, respectively) and two AMPs, RP556 and R10. […]
as §1, with “All bacterial strains were cultivated at 32 °C for 13–18 h at 200 rpm.” left out

[10] = tested on: S. aureus; experiment: as above; assay type: cell-based; settings: added AMP normalized to inoculum size, calculated with E. coli cell size parameters
Excerpt: as §2
as §1, with “All bacterial strains were cultivated at 32 °C for 13–18 h at 200 rpm.” left out

[11] = tested on: Z. mobilis; experiment: as above; assay type: cell-based, Zymomonas mobilis; settings: added AMP normalized to inoculum size, calculated with E. coli cell size parameters
Excerpt: as §2
as §1, with “All bacterial strains were cultivated at 32 °C for 13–18 h at 200 rpm.” left out

[12] = tested on: Z. mobilis cell suspension (proton-dependent ATP synthase of the cytoplasmic membrane); experiment: ATP synthesis induced by artificial transmembrane pH gradient; assay type: cell-based, Zymomonas mobilis; settings: Z. mobilis starved cells; 10 μM, added 5 min before pH shift of 3.5–4.0 units; luciferin–luciferase
Experimental: (§3) Here, we assumed that any effect the AMPs exerted on the pH-induced ATP synthesis indicated a direct interaction between the peptide and the cytoplasmic membrane. After the induction of a pH gradient of 3.5–4.0 units in cell suspensions of both Z. mobilis and E. coli, we observed an abrupt increase in the intracellular ATP concentration, reaching its maximum value within a time span between 30 sec and 1 min. The magnitude of the observed ATP concentration rise approximately corresponded to previously published values. […] When added in amounts below the threshold value (Figure 4a,b), peptides had no inhibitory effect on the ATP response. […] Yet, such an effect elicits a much stronger physiological response in E. coli than in Z. mobilis.
(§4) ATP synthase activity induced by an artificial pH gradient was measured in non-growing starved cell suspensions. For the preparation of non-growing cell suspension, cells were harvested in the late exponential phase, sedimented, washed, and resuspended in 100 mM potassium phosphate buffer (pH 7.0), to a biomass concentration of 1.5–2.0 mg dry wt /mL. […] For ATP determination, 20 μL samples were quenched in ice-cold 10% TCA and assayed by the standard luciferin–luciferase method using a TECAN Infinite 200Pro microplate reader (Tecan, Männedorf, Switzerland). […]

[13] = tested on: E. coli cell suspension (proton-dependent ATP synthase of the cytoplasmic membrane); experiment: as above; assay type: cell-based, Escherichia coli; settings: E. coli starved cells; 10 μM, added 5 min before pH shift of 3.5–4.0 units; luciferin–luciferase
Experimental: as §3, §4

For IAKKFWPKFWKFWKIFKKIA [R13], the MIC [1] is given as 63.0 µg/mL, the MIC [2] is given as 4.0 µg/mL and the MIC [3] is given as 31.0 µg/mL. For the same compound, the MIC [4] was 4.0 µg/mL, the MIC [5] was 8.0 µg/mL and the MIC [6] was 16.0 µg/mL. For the same compound, the MIC [7] was 4.0 µg/mL and the MIC [8] was 0.3 µg/mL.

In the case of IAKKFWKKFWKFWKIFKKIA [R12], the MIC [1] is given as 63.0 µg/mL, the MIC [2] is given as 8.0 µg/mL and the MIC [3] is given as 31.0 µg/mL. The MIC [4] was 4.0 µg/mL, the MIC [5] was 31.0 µg/mL and the MIC [6] was 16.0 µg/mL. The MIC [7] was 8.0 µg/mL and the MIC [8] was 0.5 µg/mL.

For VKRWKKWWRKWKKWV [LZ1], the MIC [2] is listed as 31.0 µg/mL, the MIC [3] is listed as 16.0 µg/mL and the MIC [4] is listed as 8.0 µg/mL. The MIC [5] was 16.0 µg/mL, the MIC [6] was 4.0 µg/mL and the MIC [7] was 2.0 µg/mL. For the same compound, the MIC [8] was 8.0 µg/mL.

For FAKALKALLKALKAL [Oligo10], the MIC [1] is given as 31.0 µg/mL, the MIC [2] is given as 16.0 µg/mL and the MIC [3] is given as 63.0 µg/mL. The MIC [4] was 63.0 µg/mL, the MIC [5] was 63.0 µg/mL and the MIC [6] was 16.0 µg/mL. For the same compound, the MIC [7] was 4.0 µg/mL and the MIC [8] was 2.0 µg/mL.

For `CC(C)[C@H](NC(=O)[C@H](Cc1ccc(O)cc1)NC(=O)[C@H](Cc1c[nH]c2ccccc12)NC(=O)[C@H](CS)NC(=O)[C@H](Cc1ccccc1)NC(=O)CN)C(=O)N[C@@H](CS)C(=O)N[C@@H](C)C(=O)N[C@@H](CCCNC(=N)N)C(=O)N[C@@H](CCCNC(=N)N)C(=O)N[C@@H](CC(N)=O)C(=O)NCC(=O)N[C@@H](C)C(=O)N[C@@H](CCCNC(=N)N)C(=O)N[C@H](C(=O)N[C@@H](CS)C(=O)N[C@@H](Cc1ccc(O)cc1)C(=O)N[C@@H](CCCNC(=N)N)C(=O)N[C@@H](CCCNC(=N)N)C(=O)N[C@@H](CS)C(=O)N[C@@H](CC(N)=O)C(=O)O)C(C)C` [AA139] (H-GFCWYVCARRNGARVCYRRCN-OH; N-terminus and C-terminus assumed), the MIC [1] is listed as 250.0 µg/mL (≈ 97.9 µM), the MIC [2] is listed as 4.0 µg/mL (≈ 1.57 µM) and the MIC [3] is listed as 8.0 µg/mL (≈ 3.13 µM). The MIC [4] was 16.0 µg/mL (≈ 6.26 µM), the MIC [5] was 8.0 µg/mL (≈ 3.13 µM) and the MIC [6] was 16.0 µg/mL (≈ 6.26 µM). For the same compound, the MIC [7] was 8.0 µg/mL (≈ 3.13 µM) and the MIC [8] was 63.0 µg/mL (≈ 24.7 µM).

For KIAKRIWKRIWKILRRR [PA13], the MIC [1] is listed as 63.0 µg/mL, the MIC [2] is listed as 31.0 µg/mL and the MIC [3] is listed as 16.0 µg/mL. The MIC [4] was 16.0 µg/mL, the MIC [5] was 16.0 µg/mL and the MIC [6] was 4.0 µg/mL. For the same compound, the MIC [7] was 2.0 µg/mL and the MIC [8] was 16.0 µg/mL.

In the case of KKIAKKFWKKFWKFWPKFWKIFKK [R14], the MIC [1] is listed as 63.0 µg/mL, the MIC [2] is listed as 16.0 µg/mL and the MIC [3] is listed as 16.0 µg/mL. For the same compound, the MIC [4] was 4.0 µg/mL, the MIC [5] was 4.0 µg/mL and the MIC [6] was 8.0 µg/mL. For the same compound, the MIC [7] was 8.0 µg/mL and the MIC [8] was 1.0 µg/mL.

With `CC[C@H](C)[C@H](NC(=O)CNC(=O)[C@H](CCCCN)NC(=O)[C@H](Cc1ccc(O)cc1)NC(=O)[C@H](CS)NC(=O)[C@@H](NC(=O)[C@H](CCCCN)NC(=O)[C@H](Cc1ccccc1)NC(=O)[C@H](CS)NC(=O)[C@H](Cc1c[nH]c2ccccc12)NC(=O)[C@@H](N)CCCNC(=N)N)C(C)C)C(=O)N[C@@H](CS)C(=O)N[C@@H](Cc1ccc(O)cc1)C(=O)N[C@@H](CCCCN)C(=O)N[C@@H](CCCCN)C(=O)N[C@@H](CS)C(=O)N[C@@H](CCCCN)C(=O)O` [RP556] (H-RWCFKVCYKGICYKKCK-OH; N-terminus and C-terminus assumed) the Normalized inhibitory concentration [9] was 2.93 × 10^7 peptide molecules per cell, the Normalized inhibitory concentration [10] was 2.43 × 10^7 peptide molecules per cell and the Normalized inhibitory concentration [11] was 1.68 × 10^10 peptide molecules per cell. The MIC [2] was 4.0 µg/mL (≈ 1.85 µM), the MIC [3] was 4.0 µg/mL (≈ 1.85 µM) and the MIC [4] was 2.0 µg/mL (≈ 0.927 µM). For the same compound, the MIC [5] was 4.0 µg/mL (≈ 1.85 µM), the MIC [6] was 2.0 µg/mL (≈ 0.927 µM) and the MIC [7] was 1.0 µg/mL (≈ 0.464 µM). The MIC [8] was 2.0 µg/mL (≈ 0.927 µM).

In the case of `CC(C)C[C@H](NC(=O)[C@H](CS)NC(=O)[C@H](Cc1ccccc1)NC(=O)[C@@H](N)CCCCN)C(=O)N[C@@H](CCCCN)C(=O)N[C@@H](Cc1ccccc1)C(=O)N[C@@H](CS)C(=O)N[C@@H](Cc1ccccc1)C(=O)N[C@@H](CCCCN)C(=O)NCC(=O)N[C@@H](Cc1ccccc1)C(=O)N[C@@H](CS)C(=O)N[C@@H](Cc1ccccc1)C(=O)N[C@@H](CCCCN)C(=O)N[C@@H](C)C(=O)N[C@@H](CS)C(=O)NCC(=O)N[C@@H](CCCCN)C(=O)O` [R11] (H-KFCLKFCFKGFCFKACGK-OH; N-terminus and C-terminus assumed), the MIC [1] is listed as 250.0 µg/mL (≈ 119 µM), the MIC [2] is listed as 125.0 µg/mL (≈ 59.4 µM) and the MIC [3] is listed as 63.0 µg/mL (≈ 29.9 µM). For the same compound, the MIC [4] was 63.0 µg/mL (≈ 29.9 µM), the MIC [5] was 63.0 µg/mL (≈ 29.9 µM) and the MIC [6] was 16.0 µg/mL (≈ 7.6 µM). For the same compound, the MIC [7] was 16.0 µg/mL (≈ 7.6 µM) and the MIC [8] was 0.3 µg/mL (≈ 0.142 µM).

In the case of `N#CC(C#N)=NNc1cccc(Cl)c1` [ClCCP], the “effect on pH gradient-induced ATP synthesis” value [12] is reported as “almost complete de-energization and a dramatic drop of the ATP yield” and the “effect on pH gradient-induced ATP synthesis” value [13] is reported as “almost complete de-energization and a dramatic drop of the ATP yield”.

With KKIAKKFWKKFWKFWKIFKK [R10] the MIC [1] was 31.0 µg/mL, the Normalized inhibitory concentration [9] was 2.30 × 10^7 peptide molecules per cell and the Normalized inhibitory concentration [10] was 1.98 × 10^8 peptide molecules per cell. The Normalized inhibitory concentration [11] was 6.58 × 10^9 peptide molecules per cell, the MIC [2] was 2.0 µg/mL and the MIC [3] was 16.0 µg/mL. The MIC [4] was 2.0 µg/mL, the MIC [5] was 8.0 µg/mL and the MIC [6] was 4.0 µg/mL. The MIC [7] was 4.0 µg/mL and the MIC [8] was 0.5 µg/mL.
